Assay results: patent US20240358779A1, “EXTRACELLULAR VESICLES DERIVED FROM LACTOBACILLUS BACTERIA, AND USE THEREOF” (MD HEALTHCARE INC., priority 2021, published 2024)

Test system: AMPK
Assay: AMPK phosphorylation (pAMPK) in myocytes (Western blotting)
Assay type: cell-based
Source text: During fasting or exercising, myocytes are depleted of energy, which causes a decrease in ATP production and an increase in AMP production. It is well known that, in this case, cells activate AMPK signaling to increase cellular homeostasis against metabolic stress. To evaluate a metabolic function regulating effect of Lactobacillus bacteria-derived vesicles, myocytes were each treated with Lactobacillus paracasei-derived vesicles (MDH-001-CM) and Lactobacillus rhamnosus-derived vesicles (MDH-003-CM) at concentrations of 0, 0.1, 1, and 10 μg/ml for 1 hour. Afterwards, the degree of AMPK phosphorylation (pAMPK), an indicator of AMPK signaling, was measured by Western blotting. As control drugs, 1 μM insulin and 50 mM metformin were used.

Molecule	phosphorylation of AMPK (pAMPK) (1 μM insulin)	phosphorylation of AMPK (pAMPK) (50 mM metformin)
insulin	inhibited	
CN(C)C(=N)N=C(N)N [metformin]		increased
